US9702824B2, “pH sensors” (PROMEGA CORPORATION, priority 2012, dated 2017)
Read-outs that look alike come from different tables or passages of the source. Values belong to the molecule of their own block, whether it stands above or below them.

Tests used:
[1] = test system: U2-OS cells stably expressing HaloTag-NLS; assay: pH sensor permeability, pulse and chase with HaloTag Oregon Green (Example 12); conditions: 2 uM pulse for 10 minutes
U2-OS HaloTag-EDG1 cells [2] = biological target: T1, U2-OS HaloTag-EDG1 cells (Homo sapiens, UniProt P21453); assay: Detection of internalization using an impermeable pH sensor (Example 13); assay type: cell-based; conditions: 500 nM sensor
T1 construct: host or cells: U2-OS HaloTag-EDG1 cells
T1 sequence (P21453 with tags, fused parts or gaps): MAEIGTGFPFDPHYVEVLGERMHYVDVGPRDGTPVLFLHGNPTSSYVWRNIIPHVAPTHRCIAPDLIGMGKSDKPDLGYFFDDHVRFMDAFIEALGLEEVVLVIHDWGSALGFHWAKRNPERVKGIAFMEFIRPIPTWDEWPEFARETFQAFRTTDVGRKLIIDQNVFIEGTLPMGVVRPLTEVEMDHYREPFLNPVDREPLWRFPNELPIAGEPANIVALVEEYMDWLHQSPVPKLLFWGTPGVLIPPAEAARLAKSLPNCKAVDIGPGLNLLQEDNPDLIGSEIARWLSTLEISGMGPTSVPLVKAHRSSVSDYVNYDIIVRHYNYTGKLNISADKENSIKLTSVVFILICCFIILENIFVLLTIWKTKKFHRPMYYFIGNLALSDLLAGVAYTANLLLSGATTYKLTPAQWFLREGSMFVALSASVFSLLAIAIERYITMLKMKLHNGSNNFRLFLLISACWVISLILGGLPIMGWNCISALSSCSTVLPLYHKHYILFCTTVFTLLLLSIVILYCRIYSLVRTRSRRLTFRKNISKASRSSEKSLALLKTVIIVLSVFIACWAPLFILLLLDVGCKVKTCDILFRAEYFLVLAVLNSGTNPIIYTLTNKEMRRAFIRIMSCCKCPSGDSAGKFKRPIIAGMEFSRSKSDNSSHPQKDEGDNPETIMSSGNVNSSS
Description: The next day, the media was replaced with McCoy's 5A+0.5% cFBS and incubated overnight at 37° C./5% CO2. […] 1 uM S1P (Sphingosine-1-Phosphate) or carrier (DMSO) was then added to the cells, and images were acquired sequentially on Olympus FV500 at 37° C./5% CO2.

[3] = Ex/Em printed with the synthesis procedures; assay type: physicochemical
wild-type U2-OS cells = assay: Toxicity of HaloTag pH sensors, CELLTITER Glo Cell Viability Assay (Example 9); assay type: cell-based; conditions: 0-10 uM, overnight
Description: U2-OS cells were plated at 10,000 cells/well into wells of 96-well plates and incubated overnight. The next day, 0-10 uM (serially diluted 1:2) PBI-4959, PBI-5004 or PBI-4479 was added to the cells and again incubated overnight. After incubation, the media containing the HaloTag® pH sensors was removed, and 100 ul of fresh media (McCoy's 5A+10% FBS) was added. Cell viability was determined using the CELLTITER Glo Cell Viability Assay according to the manufacturer's protocol (Promega Corporation). Luminescence was read on a GloMAX®-Multi luminometer.

U2-OS HaloTag-EDG1 cells [4] = biological target: T1, U2-OS HaloTag-EDG1 cells; assay: Detection of internalization using a permeable pH sensor (Example 13); assay type: cell-based; conditions: 500 nM sensor added after stimulation with or without 1 uM S1P
Description: To evaluate internalization using a permeable pH Sensor, U2-OS HaloTag®-EDG1 cells (Promega Corporation) were exposed to PBI-5004 and internalization of HaloTag®-EDG1 assessed. […] The next day, the media was replaced with McCoy's 5A+0.5% cFBS and incubated overnight at 37° C./5% CO2. After incubation, 1 uM S1P (Sphingosine-1-Phosphate) was added, and the cells incubated for 30 minutes at 37° C./5% CO2.

[5] = pH dependence of fluorescence emission; assay type: physicochemical
Description: (§1) Experiments were conducted during development of embodiments of the present invention to determine the fluorescence characteristics of exemplary pH sensor agents PBI-4453 and PBI-4479 (SEE FIG. 1). Fluorescence excitation and emission intensities were measured at a range of wavelengths (SEE FIG. 2). […] Fluorescence detection was performed at a range of pH values (SEE FIG. 3).

[6] = Fluorescence excitation and emission spectra of pH sensor agents; assay type: physicochemical
Description: as §1

U2OS cells = assay: Toxicity, CELLTITER-GLO Luminescent Cell Viability Assay (Example 3); assay type: cell-based; conditions: 0 nM to 20 uM, 24 hour
Description: The toxicity of dyes PBI-4479 and PBI-4453 was tested in U2OS cells. The cells were plated at 20,000 cells/well in McCoy's 5A media+10% FBS into wells of a 96-well plate. The compounds were then serially diluted 2-fold in McCoy's 5A+10% FBS to a 10× working solution. 10 ul of the working solution was added to the cells to a final concentration of 0 nM to 20 uM. The treated cells were then incubated overnight at 37° C., 5% CO2. Toxicity was tested using Promega's CELLTITER-GLO Luminescent Cell Viability Assay according to the manufacturer's protocol. No toxicity was seen across varying concentrations of the compounds over the 24 hour period (SEE FIG. 9).

[7] = test system: U2-OS cells stably expressing HaloTag-NLS
[8] = test system: HaloTag-EDG1 fusion protein in U2-OS cells; assay: Restoration of internalization by DYNASORE washout; assay type: cell-based; conditions: 80 uM removed by washing, then 1 uM S1P for 60 minutes
Description: In such experiments, blocked internalization of HaloTag-EDG1 was restored. […] After the overnight incubation, the cells were simultaneously labeled with a HaloTag pH sensor (PBI-4479) and 80 uM DYNASORE (Sigma). Control cells were labeled with the HaloTag pH sensor, but were not treated with DYNASORE. The cells were then stimulated with 1 uM S1P and imaged (T=0 in FIG. 17). At this point, DYNASORE prevents the dynamin-dependent internalization/endocytosis of HaloTag-EDG1. DYNASORE was then removed by washing three times for 5 minutes with McCoy's 5A+10% FBS, and the media replaced with complete media containing 1 uM S1P. The cells were incubated for 60 minutes and imaged as previously described. Internalization of HaloTag-EDG1 was restored as detected and monitored by the pH sensor (SEE FIG. 19).

[9] = test system: HaloTag-EDG1 fusion protein in U2-OS cells; assay: Blocking internalization by DYNASORE, detected with pH sensor; assay type: cell-based; conditions: 80 uM, 1 uM S1P for 60 minutes, detected with 1 uM PBI-4479
Description: In addition to dynamin, DYNASORE, a reversible, non-competitive inhibitor of dynamin, can also be used to block internalization/endocytosis with the blocking detected and monitored using the pH sensor of the present invention. […] After the overnight incubation, the cells were simultaneously labeled for 30 minutes with 1 uM HaloTag pH sensor (PBI-4479) and 80 uM Dynasore (Sigma). Control cells were labeled with the 1 uM HaloTag pH sensor, but were not treated with Dynasore. The cells were then stimulated with 1 uM S1P for 60 minutes and imaged as previously described.

cell permeability [1]: non-permeability
Molecule: O=C(NCCOCCOCCCCCCCl)c1cccc(CNC(=O)c2ccc(C(=O)[O-])c(-c3c4ccc(=[N+]5CCN(CCCCS(=O)(=O)O)CC5)cc-4oc4cc(N5CCN(CCCCS(=O)(=O)O)CC5)ccc34)c2)c1 [PBI-4958]

cell permeability [1]: non-permeability
Molecule: O=C(CCOCCOCCOCCOCCNC(=O)c1ccc(C(=O)[O-])c(-c2c3ccc(=[N+]4CCN(CCCCS(=O)(=O)O)CC4)cc-3oc3cc(N4CCN(CCCCS(=O)(=O)O)CC4)ccc23)c1)NCc1cccc(C(=O)NCCOCCOCCCCCCCl)c1 [PBI-4994]

cell permeability [1]: non-permeability
Em [3]: 564 nm
Ex [3]: 532 nm
Molecule: O=C(NCCOCCOCCCCCCCl)c1ccc(CNC(=O)c2ccc(C(=O)[O-])c(-c3c4ccc(=[N+]5CCN(CCCCS(=O)(=O)O)CC5)cc-4oc4cc(N5CCN(CCCCS(=O)(=O)O)CC5)ccc34)c2)cc1 [PBI-4959, 4-((4-((2-(2-((6-chlorohexyl)oxy)ethoxy)ethyl)carbamoyl)benzyl))-3′,6′-bis(4-(4-sulfobutyl)piperazin-1-yl) rhodamine(5′,6′) carboxamide]
detection of HaloTag-EDG1 internalization (U2-OS HaloTag-EDG1 cells [2]; with 1 uM S1P): ability to detect internalization of HaloTag-EDG1
detection of background HaloTag-EDG1 internalization (U2-OS HaloTag-EDG1 cells [2]; without 1 uM S1P): ability to detect background internalization of HaloTag-EDG1
toxicity (cell viability) (wild-type U2-OS cells): non-toxicity

Em [3]: 560 nm
Ex [3]: 532 nm
Molecule: O=C(NCC1CCC(C(=O)NCCOCCOCCCCCCCl)CC1)c1ccc(C(=O)[O-])c(-c2c3ccc(=[N+]4CCN(CCCCS(=O)(=O)O)CC4)cc-3oc3cc(N4CCN(CCCCS(=O)(=O)O)CC4)ccc23)c1 (centres unmarked) [PBI-5004, 4-(((4-((2-(2-((6-chlorohexyl)oxy)ethoxy)ethyl)carbamoyl)cyclohexyl)methyl)) 3′,6′-bis(4-(4-sulfobutyl)piperazin-1-yl) rhodamine(5′,6′) carboxamide]
detection of HaloTag-EDG1 internalization (U2-OS HaloTag-EDG1 cells [4]): ability to detect internalization of HaloTag-EDG1
toxicity (cell viability) (wild-type U2-OS cells): non-toxicity

pH at or below which maximal fluorescence intensity is exhibited [5]: ≤ 4.15
percent of maximal fluorescence ([5]; at pH 7.53 or higher): ≤ 5%
pKa ([5]; from pH dependence of fluorescence): ~5.84
emission maximum [6]: 571 nm
excitation maximum [6]: 541 nm
Molecule: CN1CCN(c2ccc3c(-c4cc(C(=O)NCCOCCOCCOCCOCCOCCOCCCCCCCl)ccc4C(=O)[O-])c4ccc(=[N+]5CCN(C)CC5)cc-4oc3c2)CC1 [PBI-4453, N-(24-chloro-3,6,9,12,15,18-hexaoxatetracosyl)-3′,6′-bis(4-methylpiperazin-1-yl)-rhodamine-(5,6)carboxamide]
toxicity (cell viability) (U2OS cells): No toxicity

Em [3]: 586 nm
Ex [3]: 559 nm
Molecule: CN1CCN(c2ccc3c(c2)Oc2c4c5c(cc2=C3c2cc(C(=O)O)ccc2C(=O)[O-])CCC[N+]=5CCC4)CC1 [Hexahydroquinoiizino-(4-methylpiperazin-1-yl}-rhodamine-6′-carboxyic acid]

cell permeability [7]: non-permeability
Molecule: 4-((1-(4-((2-(2-((6-chlorohexyl)oxy)ethoxy)ethyl)carbamoyl)phenyl)-3-oxo-6,9,12,15-tetraoxa-2-azaheptadecan-17-yl)) 3′,6′-bis(4-(4-sulfobutyl)piperazin-1-yl) rhodamine(5′,6′)carboxamide [PBI-4995]

Molecule: O=C(N/N=C/c1ccc(O)c(O)c1)c1cc2ccccc2cc1O [DYNASORE]
HaloTag-EDG1 internalization after washout [8]: restored
effect on HaloTag-EDG1 internalization [9]: prevented dynamin-dependent internalization/endocytosis
